Here are results for one compound from PMC4818699 (Angewandte Chemie (International ed. in English), 2016).

This assay deals with MoeN5 (MoeN5-CS) (Streptomyces viridosporus). The assay can be described thus: X-ray crystal structure of the complex. Particulars: allylic site S1, near Asp-rich motifs; also PDB 5B03. The assay is classed as binding.

The structures appear in SMILES notation.

MoeN5 (MoeN5-CS) (Streptomyces viridosporus), sequence (A0A010 1-260): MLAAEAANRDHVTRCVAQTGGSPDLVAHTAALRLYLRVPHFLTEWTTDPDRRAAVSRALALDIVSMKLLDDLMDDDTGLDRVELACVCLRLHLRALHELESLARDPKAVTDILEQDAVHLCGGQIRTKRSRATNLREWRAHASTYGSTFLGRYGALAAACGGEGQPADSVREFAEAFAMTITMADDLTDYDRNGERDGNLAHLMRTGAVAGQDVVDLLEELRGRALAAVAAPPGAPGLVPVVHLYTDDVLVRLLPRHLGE

With `CC(C)=CCC/C(C)=C/COP(=O)(O)OP(=O)(O)O` [compound 6, geranyl diphosphate], the “X-ray crystal structure of the complex” value was “GPP binds to MoeN5-CS close to the Asp-rich domains”.
